Values joined by “and” are separate entries in the source; they are usually repeats but may differ in a detail not shown here. Equal values may be shown once.
Columns and labels:
[1] = molecular target: T1, glucocerebrosidase (GCase), recombinant wt. enzyme velaglucerase alfa (Homo sapiens, UniProt P04062); experiment: Glucocerebrosidase activity assay with blue substrate (4MU-Glc); type: biochemical; settings: 4MU-Glc substrate enzyme activity assay
T1 construct: purchased Shire Human Genetic Therapies, Inc. Vpriv
T1 sequence (P04062 40-536): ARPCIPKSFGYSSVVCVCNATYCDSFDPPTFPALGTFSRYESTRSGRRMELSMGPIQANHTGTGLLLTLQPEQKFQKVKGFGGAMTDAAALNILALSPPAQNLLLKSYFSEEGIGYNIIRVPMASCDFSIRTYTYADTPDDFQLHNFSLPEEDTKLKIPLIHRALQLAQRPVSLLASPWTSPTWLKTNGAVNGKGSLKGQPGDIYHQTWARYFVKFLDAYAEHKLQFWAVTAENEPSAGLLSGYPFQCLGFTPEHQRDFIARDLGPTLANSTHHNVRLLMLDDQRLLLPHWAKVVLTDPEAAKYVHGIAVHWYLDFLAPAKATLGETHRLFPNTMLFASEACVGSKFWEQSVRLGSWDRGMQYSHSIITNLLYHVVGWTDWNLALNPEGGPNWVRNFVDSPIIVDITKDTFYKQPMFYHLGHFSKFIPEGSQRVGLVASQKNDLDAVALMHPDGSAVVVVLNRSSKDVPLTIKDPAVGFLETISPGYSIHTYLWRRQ
Description: (§1) The compounds in DMSO solution 0.5 μL/well were transferred to a black 96-well plate (the final titration was 24 nM to 50 μM, 12 concentrations, 2 times dilution). 33.5 μL enzyme solution (7.5 nM final concentration) was transferred to the wells. After 5 min of incubation at room temperature, the enzyme reaction was initiated by the addition of 33 μL/well blue substrate or 66.5 μL/well red substrate. Final concentrations of the blue substrate (4MU-Glc) and red substrate (Res-Glc) were 1.5 mM and 30 μM, respectively. The red substrate reaction was measured in the Biotek Synergy H1 multi-mode plate reader with Ex=573 nm and Em=610 nm at 37° C. every 20 sec for 30 min. The blue substrate reaction was terminated by the addition of 33 μL/well stop solution (1 M NaOH and 1 M glycine mixture, pH 10) after 30 min of incubation at 37° C. The fluorescence was then measured in the plate reader at Ex=365 nm and Em=440 nm.
The recombinant wt. enzyme velaglucerase alfa (Vpriv®, Shire Human Genetic Therapies, Inc.) was obtained from residual solution after clinical infusions. The GCase activity assay buffer was composed of 50 mM citric acid, 176 mM K2HPO4, and 0.01% Tween-20 at pH 5.9. A solution of 1 M sodium hydroxide and 1 M glycine was used as the stop solution for the 4MU-β-glc substrate assay.
The compounds in DMSO solution 0.5 μL/well was transferred to a black 96-well plate (the final titration was 24 nM to 50 μM, 12 concentrations). 33.5 μL enzyme solution (7.5 nM final concentration) was transferred to the wells. After 5 min of incubation at room temperature, the enzyme reaction was initiated by the addition of 33 μL/well 4MU-Glc substrate or 66.5 μL/well red substrate. Final concentrations of the 4MU-Glc substrate and Res-Glc substrate were 1.5 mM and 30 μM, respectively. The red substrate reaction was measured in the Biotek Synergy H1 multi-mode plate reader with Ex=573 nm and Em=610 nm at 37° C. in every 20 seconds for 30 min. The 4MU-Glc substrate reaction was terminated by the addition of 33 μL/well stop solution (1 M NaOH and 1 M glycine mixture, pH 10) after 30 min of incubation at 37° C. The fluorescence was then measured in the plate reader with Ex=365 nm and Em=440 nm.

[2] = molecular target: T1, glucocerebrosidase (GCase), recombinant wt. enzyme velaglucerase alfa; experiment: Glucocerebrosidase activity assay with red substrate (Res-β-glc); type: biochemical; settings: at 50 μM
Description: as §1, with “nm. […]” for “nm.”
The compounds in DMSO solution 0.5 μL/well was transferred to a black 96-well plate (the final titration was 24 nM to 50 μM, 12 concentrations). […] The red substrate reaction was measured in the Biotek Synergy H1 multi-mode plate reader with Ex=573 nm and Em=610 nm at 37° C. in every 20 seconds for 30 min. […] The fluorescence was then measured in the plate reader with Ex=365 nm and Em=440 nm.

GCase [3] = molecular target: T2, GCase (Homo sapiens, UniProt P04062); experiment: Binding affinity test by FP assay (competition with probe 3); settings: in words; 19.5 nM to 10 μM
T2 construct: purchased Shire Human Genetic Therapies, Inc. Vpriv
T2 sequence (P04062 40-536): T1 sequence (P04062 40-536)
Description: The enzyme in GCase enzyme activity buffer (25 μL/well) was added to a 384-well black plate. The fluorescent probe 3 (25 nL/well, 50 nM final concentration) was transferred to a 384-well black plate using a Labcyte Echo 550 Liquid Handler system. Compounds in DMSO stock solution (50 nL) were transferred to the plate. The plate was shaken at room temperature in dark for 20 min. The final concentration was 19.5 nM to […], 10 concentrations, 2 times dilution. The fluorescence polarization was measured in a Molecular Devices Analyst GT with Ex=535 nm and Em=580 nm, G Factor=1.05.
The enzyme in GCase enzyme activity buffer (25 μL/well) was added to a 384-wells black plate, The fluorescent probe 3 (25 nL/well, 50 nM final concentration) was transferred to a 384-wells black plate by using Labcyte Echo 550 Liquid Handler system. Compounds 1, and 2 in DMSO stock solution (50 nL) (the final titration was 19.5 nM to 10 μM, 10 concentrations) were transferred to the plate. The plate was shook at room temperature in dark for 20 min. The fluorescence polarization was measured in Molecular Devices Analyst GT with Ex=535 nm and Em=580 nm, G Factor=1.05.

GCase [4] = molecular target: T2, GCase; experiment: Fluorescence polarization (FP) assay, probe titrated with enzyme; type: binding; settings: probe 50 nM, enzyme 5 nM to 10 μM
Description: The fluorescent probe 3 (25 nL/well, 50 nM final concentration) was transferred to a 384-well black plate using a Labcyte Echo 550 Liquid Handler system. The 25 μL/well enzyme dilutions with GCase enzyme activity buffer were added to the plate, which was shaken at room temperature in dark for 20 min. The final titration was 5 nM to 10 μM, 10 concentrations, 2 times dilution. The fluorescence polarization was measured in Molecular Devices Analyst GT with Ex=535 nm and Em=580 nm, G Factor=1.05.
The fluorescent probe 3 (25 nL/well, 50 nM final concentration) was transferred to a 384-wells black plate by using Labcyte Echo 550 Liquid Handler system. The 25 μL/well enzyme dilutions in GCase enzyme activity buffer (the final titration was 5 nM to 10 μM, 10 concentrations, 2 times dilution) were added to the plate, and shook at room temperature in dark for 20 min. The fluorescence polarization was measured in Molecular Devices Analyst GT with Ex=535 nm and Em=580 nm, G Factor=1.05.

[5] = molecular target: T3, recombinant wild type GCase (Homo sapiens, UniProt P04062); experiment: Covalent binding assay: activity of GCase activated by probe 4; type: biochemical; settings: natural substrate assay; covalent activation
T3 construct: purchased Shire Human Genetic Therapies, Inc. Vpriv
T3 sequence (P04062 40-536): T1 sequence (P04062 40-536)
Description: To the recombinant wild type enzyme (22 μM, 95 μL, 1 equiv) in 0.1 M phosphate buffer (pH 7.2) was added 2,5-dioxopyrrolidin-1-yl 3-(2-(2-(4-(4-(2,4-dimethylpyrrolo[1,2-a]pyrimidine-8-carboxamido)phenyl)-1H-1,2,3-triazol-1-yl)ethoxy)ethoxy)propanoate (4) in DMSO (0.89 mM, 5 μL, 2 equiv) in one portion, and was vortexed for 5 sec immediately. At indicated time points, the reaction solution (2 μL) was sampled and diluted (1:3125 dilution) into the assay buffer (50 mM citric acid, 176 mM K2HPO4, and 0.01% Tween-20 at pH 5.9). After 2 h the reaction solution was dialyzed three times with 0.1 M phosphate buffer (pH 7.2). The enzyme was adjusted to the same concentration and sampled for activity. The dilution solutions were assayed with three substrates, resorufin substrate, 4-MU substrate, and natural substrate using the method in Example 5 and Example 6 without adding compounds.
The probe 4 was subjected to the covalent binding assay against GCase. The reaction conditions, including the buffer pH value, the concentration of the protein and probe, and the reaction temperature were carefully adjusted to achieve the maximum activation. With the optimized reaction condition, the enzyme activity was activated in a time-dependent manner (FIG. 5). The enzyme could be activated by probe 4 with around 22 and 28 folds activity comparing to the wt. GCase in the 4MU-Glc substrate (FIG. 5A) and red substrate (FIG. 5B) enzyme activity assay respectively.

[6] = Enzyme stability assay in pH 4.7 buffer; type: physicochemical; settings: citrate/phosphate buffer pH 4.7, day 10
From the text: To test whether probe 4 changed the enzyme stability of GCase, we used two environments for GCase activity stability assay (Tekoah, Tzaban et al. 2013). The first one was citrate/phosphorylate buffer, which was at pH 4.7. In this condition, the wt. GCase only had about 15% activity left on day 4 (FIGS. 6A and 6B), which is similar to the previous research (Tekoah, Tzaban et al. 2013). An interesting finding was that even on day 10, activated GCase still had more than 20% activity left. […] One possible reason for the higher enzyme activity in low pH buffer was that activated GCase was stabilized by the covalent compound, and was more difficult to unfold.

U937 macrophage cells = experiment: U937 macrophage uptake assay; type: cell-based, human
Description: Human monocyte cell line U937 was optimally differentiated into macrophages by the addition of 75 ng/ml PMA (Brumshtein, Salinas et al. 2010) to the monocyte culture for 3 days (in 75 cm^2 flasks). Macrophages were enriched by adhesion to the culture plate and identified by morphology and receptor staining.
The assay was carried out according to the reported method (Tekoah, Tzaban et al. 2013) with slight modification. The enzyme was treated with compound 4 or DMSO at pH 7.2 for 60 min as described above, then dialyzed with PBS. U937 cells, after differentiation (˜1.6*10^6 cells), were incubated with 60 μg/ml of the activated enzymes and wt. enzyme in F12K medium for 10 min at 5% CO2, 37° C. incubator. The cells were then washed twice with ice cold PBS enriched with Mannan (1 mg/ml). To further ensure release of any proteins bound non-specifically to the membrane half of the cells were washed with ice cold glycine buffer: (0.8% NaCl, 0.038% KCl, 0.01% MgCl2, 0.01% CaCl2, 0.7% glycine [pH 3]) followed by two additional cold PBS washes. The other half of the wells were used as controls for measuring total enzymatic activity (bound and internalized enzyme). The cells were lysed by adding β-glucocerebrosidase activity buffer (60 mM phosphate-citrate buffer; 0.15% Triton X-100; 0.125% sodium taurocholate, pH 5.5), followed by pipetting and one freeze/thaw cycle. The obtained lysates were subjected to determination of enzymatic activity using the colorimetric method detailed above. The total enzymatic activity was normalized to total soluble proteins as measured by Bradford assay. The effective uptake was calculated as the percentage of activity within the cells out of the total enzymatic activity of the controls.

Molecule: Cc1cc(C)n2ccc(C(=O)Nc3ccc(-c4cn(CCOCCOCCN)nn4)cc3)c2n1 [No. 3, N-(4-(1-(2-(2-(2-aminoethoxy)ethoxy)ethyl)-1H-1,2,3-triazol-4-yl)phenyl)-2,4-dimethylpyrrolo[1,2-a]pyrimidine-8-carboxamide]
- maximum activity / activation activity [1]: around 14 folds
- AC50 ([1]; read-out: AC50): 6310 nM
- activation of Res-β-glc substrate hydrolysis [2]: 10 folds
- activity in FP competition with probe 3 (GCase [3]): much higher activity

Molecule: Cc1cc(C)n2ccc(C(=O)Nc3ccc(-c4cn(CCOCCOCCNC(=O)c5ccc(-c6c7ccc(=[N+](C)C)cc-7oc7cc(N(C)C)ccc67)c(C(=O)[O-])c5)nn4)cc3)c2n1 [No. 4, 2-(3,6-Bis(dimethylamino)xanthylium-9-yl)-5-((2-(2-(2-(4-(4-(2,4-dimethylpyrrolo[1,2-a]pyrimidine-8-carboxamido)phenyl)-1H-1,2,3-triazol-1-yl)ethoxy)ethoxy)ethyl)carbamoyl)benzoate]
- Kd (GCase [4]): 710 nM and ~710 nM

B1: activated GCase: recombinant wild type GCase covalent modified by probe 4 (NHS ester) on lysine residues, 1-3 ligands (conjugate, UniProt P04062 40-536, looked up)
Lysosomal acid …: T1 sequence (P04062 40-536)
modifications: covalent probe 4 on lysines
notes: recombinant wild type GCase covalent modified by probe 4 (NHS ester) on lysine residues, 1-3 ligands
- activity improvement [5]: 16 folds
- activity left [6]: more than 20%
- activity compared to endogenous GC (U937 macrophage cells; PMA-induced U937 cells, 4MU-β-glc substrate): more than 25 folds
- protein uptake level (U937 macrophage cells; Western blot, activated GCase vs wt. GCase, in words): equal
